Biological target: T1, CEP128_C915 (Homo sapiens, UniProt Q6ZU80)
T1 construct: endogenous in cells; host or cells: 22Rv1
T1 sequence (Q6ZU80 1-1094): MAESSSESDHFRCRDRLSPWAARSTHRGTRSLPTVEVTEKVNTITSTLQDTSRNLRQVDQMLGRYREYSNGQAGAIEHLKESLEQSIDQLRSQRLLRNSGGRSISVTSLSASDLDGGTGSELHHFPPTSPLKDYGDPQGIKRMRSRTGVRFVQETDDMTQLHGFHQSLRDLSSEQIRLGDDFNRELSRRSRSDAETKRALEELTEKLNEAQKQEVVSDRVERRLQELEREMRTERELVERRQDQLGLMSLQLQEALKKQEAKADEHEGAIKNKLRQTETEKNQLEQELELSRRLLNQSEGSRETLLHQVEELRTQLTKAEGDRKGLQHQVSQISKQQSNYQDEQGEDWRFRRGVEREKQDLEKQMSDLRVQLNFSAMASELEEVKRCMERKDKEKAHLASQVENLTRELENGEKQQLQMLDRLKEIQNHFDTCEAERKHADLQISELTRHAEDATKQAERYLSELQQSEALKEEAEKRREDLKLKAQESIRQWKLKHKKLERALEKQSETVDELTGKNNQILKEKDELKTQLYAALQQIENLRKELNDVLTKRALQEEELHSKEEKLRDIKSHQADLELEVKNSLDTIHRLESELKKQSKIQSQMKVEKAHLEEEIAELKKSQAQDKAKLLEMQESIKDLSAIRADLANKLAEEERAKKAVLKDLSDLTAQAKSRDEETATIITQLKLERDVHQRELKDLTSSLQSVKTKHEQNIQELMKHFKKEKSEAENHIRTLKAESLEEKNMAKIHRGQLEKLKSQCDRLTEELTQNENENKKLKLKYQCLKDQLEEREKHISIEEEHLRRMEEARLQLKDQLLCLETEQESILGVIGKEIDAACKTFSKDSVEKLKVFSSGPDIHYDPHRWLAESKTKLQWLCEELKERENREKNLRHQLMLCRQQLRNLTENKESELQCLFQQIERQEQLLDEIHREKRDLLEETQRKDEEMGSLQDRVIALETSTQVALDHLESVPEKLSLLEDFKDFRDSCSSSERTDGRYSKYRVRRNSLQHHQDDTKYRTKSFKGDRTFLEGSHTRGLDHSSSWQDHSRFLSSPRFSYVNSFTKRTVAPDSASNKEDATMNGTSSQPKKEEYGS
Assay: IA-DTB cysteine engagement
Format: binding
Conditions: 22Rv1 cells, 20 μM probe, 1 h, relative to DMSO
Summary of the method: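 Probe-exposed cells were lysed, IA-DTB-labeled, trypsinized and streptavidin-enriched. Multiplexed TMT quantitation gave engagement ratios versus DMSO, with non-tryptic peptides excluded and intensities normalized to median summed signal.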

% engagement CEP128_C915	SMILES
25%	C=CC(=O)N1C[C@H](c2ccc(Br)cc2)[C@H]1C(=O)Nc1cccc2cccnc12 [MY-3B, (2S,3S)-1-acryloyl-3-(4-bromophenyl)-N-(quinolin-8-yl)azetidine-2-carboxamide]
67.5%	C=CC(=O)N1C[C@H](c2ccc(Br)cc2)[C@@H]1C(=O)Nc1cccc2cccnc12 [MY-1B, (2R,3S)-1-acryloyl-3-(4-bromophenyl)-N-(quinolin-8-yl)azetidine-2-carboxamide]
7%	C=CC(=O)N1C[C@H](c2ccc(Br)cc2)[C@H]1C(=O)Nc1cccc2cccnc12 [MY-3A, (2S,3S)-1-acryloyl-3-(4-bromophenyl)-N-(quinolin-8-yl)azetidine-2-carboxamide]
−13%	C=CC(=O)N1C[C@@H](c2ccc(Br)cc2)[C@H]1C(=O)Nc1cccc2cccnc12 [MY-1A, (2S,3R)-1-acryloyl-3-(4-bromophenyl)-N-(quinolin-8-yl)azetidine-2-carboxamide]

Source: patent US20250034216A1, “STEREOSELECTIVE COVALENT LIGANDS FOR ONCOGENIC AND IMMUNOLOGICAL PROTEINS” (The Scripps Research Institute, priority 2021, published 2025)
